The results in this text go back to PMC9698773, “Design, Synthesis, Molecular Modeling, and Anticancer Evaluation of New VEGFR-2 Inhibitors Based on the Indolin-2-One Scaffold” (Pharmaceuticals, 2022).

Broadly, the IC50 is the concentration needed to halve the response being measured. High values mean lower potency, low ones higher potency.

This assay concerns MCF-7 cell line. Put plainly: MTT cytotoxicity assay, MCF-7. In kind it is cell-based, human. Here is the method:
The cytotoxic activities against breast MCF-7 and liver HepG2 cancer cell lines for all the synthesized compounds 3a,b–17a,b were evaluated by MTT-based cytotoxicity assay. Sunitinib was selected as a reference standard in this study, and the results are presented as IC50 in Table 1.
The anticancer activities of the target compounds 3a,b–17a,b were quantitatively assessed using the MTT protocol against the MCF-7 and HepG2 cell lines, as described in the Supplementary Materials. […]
4.2. Biological investigation
4.2.1. In vitro cytotoxic activity assay
Citation: Abdelgawad, M.A.; Cell Line cells were obtained from the American Type Culture Collection. The cells Hayallah A.M.; Bukhari S.N.A.; were cultured using DMEM (Invitrogen/Life Technologies) supplemented with 10% FBS Musa A.; Elmowafy M.; (Hyclone,), 10 ug/ml of insulin (Sigma), and 1% penicillin‐streptomycin. All of the other Abdel‐Rahman, H.M.; chemicals and reagents were from Sigma or Invitrogen. Plate cells (cells density 1.2 – 1.8 Abd El‐Gaber, M.K. Design, × 10,000 cells/well) in a volume of 100μl complete growth medium + 100 μl of the tested Synthesis, Molecular Modeling, and compound per well in a 96‐well plate for 24 hours before the MTT assay. The tested com‐ Anticancer Evaluation of New pounds were dissolved in DMSO just before the test.
VEGFR‐2 Inhibitors Based on the Indolin‐2‐One Scaffold. 4.2.1.1. Cell culture protocol
Pharmaceuticals 2022, 15, x. The culture medium was removed to a centrifuge tube. The cell layer was briefly https://doi.org/10.3390/xxxxx rinsed with 5 mL of 0.25% (w/v) Trypsin and 3 mL of 0.53 mM EDTA solution to remove Academic Editor(s): Mary J. Meegan all traces of serum which contains Trypsin inhibitor. Next, 2.0 to 3.0 ml of Trypsin EDTA Received: 18 October 2022 solution was added to the flask and cells were observed under an inverted microscope Accepted: 9 November 2022 until the cell layer was dispersed (usually within 5 to 15 minutes). Then, 6.0 to 8.0 mL of Published: 14 November 2022 complete growth medium was added and cells aspirated by gently pipetting. The cell suspension was transferred to the centrifuge tube with the medium and cells from step 1, Publisher’s Note: MDPI stays neu‐and centrifuged at approximately 125 xg for 5 to 10 minutes. The supernatant was dis‐ tral with regard to jurisdictional carded and the cell pellet was suspended in fresh growth medium. Appropriate aliquots claims in published maps and institu‐ of the cell suspension were added to new culture vessels and incubated at 37°C for 24 hrs. tional affiliations. After treatment of cells with the serial concentrations of the compound to be tested, incu‐ bation was carried out for 48 h at 37 °C. The plates were examined under an inverted mi‐ croscope and proceeded for the MTT assay […]
Submitted for possible open access 4.2.1.2. […]
HepG‐2) were used in this test. At first, the cell lines were cultured in RPMI‐1640 medium Pharmaceuticals 2022, 15, x. https://doi.org/10.3390/xxxxx. www.mdpi.com/journal/pharmaceuticals […]
Pharmaceuticals 2022, 15, x FOR PEER REVIEW 2 of 22 with 10% fetal bovine serum. Antibiotics (100 units/ml penicillin and100 μg/ml strepto‐ mycin) were added at 37 °C in a 5% CO2 incubator. The cell lines were seeded in a 96‐well plate at a density of 1.0 x 10^4 cells / well at 37 °C for 48 h under 5% CO2. After incubation, the cells were treated with different concentrations of the synthesized compounds and incubated for 24 h. After 24 h of drug treatment, 20 μl of MTT solution (5mg/ml) was added and incubated for 4 h. 100 μl of dimethyl sulfoxide (DMSO) was added into each well to dissolve the formed purple formazan. The colored solution was measured and recorded at an absorbance of 570 nm using a plate reader (EXL 800, USA). The relative cell viability was calculated in percentage as (A570 of treated samples/A570 of untreated sam‐ ple) X 100. The half maximal inhibitory concentration (IC50) values were presented using […]
In general terms: Formazan colour is commonly taken as a measure of viable cells.

For the setting “Homo sapiens, MCF7, MTT assay, mean ± SD of three experiments”, `O=C1Nc2ccccc2C1=Nc1ccc(C(=O)NNC(=S)Nc2ccccc2)cc1` [Compound 17a, 2-(4-((2-Oxoindolin-3-ylidene)amino)benzoyl)-N-phenylhydrazinecarbothioamide] registered an IC50 of 1440 ± 110 nM. In addition, under “ratio of IC50 to sunitinib”, the “fold more potent than sunitinib, MCF-7” value is “three-fold”.
